# Key:
# [1] = system: Jurkat cells; assay: Lipid raft redistribution (CTB594 staining) in activated Jurkat cells; format: cell-based, human; conditions: Salp15 treatment prior to anti-CD3/CD28 stimulation
# Method: (§1) Naïve CD4+ T cells from C3H/HeN, Balb/c, and B10.BR mice were purified as previously described (Anguita et al., 2002). CD4+ T cells were preincubated in Click's modified Bruff's Medium (Sigma Chemical Co., St. Louis, Mo., U.S.A.) for 10 minutes at 37° C. with and without Salp15 (50 μg/mL) and stimulated for 20 min or the indicated times at 37° C. with 10 μg/mL of anti-CD3ε, 1 μg/mL of anti-CD28, and 10 μg/mL of anti-armenian and syrian hamster IgG (BD Biosciences Pharmingen, San Jose, Calif., U.S.A.). Jurkat (E6-1) cells were stimulated using 5 μg/mL of OKT3 mAb (eBioscience, San Diego, Calif., U.S.A.) and 1 μg/mL of anti-human CD28 cross linked with 5 μg/mL anti-mouse IgG for the indicated times.
# (§2) For the visualization of lipid rafts, phospho-tyrosine, and cytoskeleton reorganization, CD4^+, CD8^+ or Jurkat cells were cytospun for 10 minutes at 1000 RPM onto positively charged microslides (Fisher Scientific, Hampton, N.H., U.S.A.). The cells were fixed with 3.7% paraformaldehyde (Sigma Chemical Co.) for 15 minutes and stained with CTB594 (Molecular Probes, Eugene, Oreg., U.S.A.), AlexaFluor488 labeled phalloidin (Molecular Probes) or (1:50) biotin-conjugated anti-p-Tyr (PY99) followed by Streptavidin-AlexaFluor594 (1:100, Molecular Probes). […]
# [2] = system: Jurkat cells; assay: Actin polymerization (phalloidin488 staining, F-actin immunoblot) in activated Jurkat cells; format: cell-based, human; conditions: Salp15 pretreatment
# Method: (§3) For the visualization of lipid rafts, phospho-tyrosine, and cytoskeleton reorganization, CD4^+, CD8^+ or Jurkat cells were cytospun for 10 minutes at 1000 RPM onto positively charged microslides (Fisher Scientific, Hampton, N.H., U.S.A.). The cells were fixed with 3.7% paraformaldehyde (Sigma Chemical Co.) for 15 minutes and stained with CTB594 (Molecular Probes, Eugene, Oreg., U.S.A.), AlexaFluor488 labeled phalloidin (Molecular Probes) or (1:50) biotin-conjugated anti-p-Tyr (PY99) followed by Streptavidin-AlexaFluor594 (1:100, Molecular Probes). For p-LAT and p-PLCγ1 staining, fixed cells were treated with PBS containing 0.1% Triton-X 100 and 100 mM glycine for 15 min at room temperature and stained using rabbit p-LAT (Tyr^191) or rabbit anti-p-PLCγ1 (Tyr^783) probed with anti-rabbit IgG488 (Molecular Probes).
# The amount of F-actin in activated CD4+ T cells in the presence and absence of Salp15 was quantified by ultracentrifugation and Western blotting. CD4^+ T cells were activated as described above for 2 min. Cells were lysed in HEPES buffer containing Triton X-100 (10 mM NaCl, 135 mM KCl, 2 mM MgCl2, 2 mM EGTA, 10 mM HEPES pH 7.15, 1% Triton X-100, 0.01 mg/ml aprotinin, 0.01 mg/ml leupeptin, 1 mM PMSF). […] Equal amounts of total protein were loaded on the SDS-gel based on the total actin determined from a sample of the cell lysate.
# [3] = system: CD4+ T cells; assay: Actin polymerization (phalloidin488 staining, F-actin immunoblot, flow cytometry) in activated CD4+ T cells; format: cell-based, mouse; conditions: Salp15 pretreatment; effect seen as early as 1 minute of activation
# Method: as §2
# Actin polymerization assay was performed as described earlier (Krishnan et al., 2004). […] The cells were washed, resuspended in PBS and analyzed for F-actin content on a FACSCalibur with CellQuest software (Beckton Dickinson, Mountain View, Calif., U.S.A.). […] The cells were washed twice with PBS and analyzed by flow cytometry.
# The amount of F-actin in activated CD4+ T cells in the presence and absence of Salp15 was quantified by ultracentrifugation and Western blotting. […] Equal amounts of total protein were loaded on the SDS-gel based on the total actin determined from a sample of the cell lysate.
# [4] = target: T1, sCD4 (Homo sapiens, UniProt P01730); assay: Competition for sCD4-HRP binding to plate-bound P11
# T1 construct: the extracellular four domains of CD4 (sCD4); purchased Research Diagnostics Inc., Flanders, N.J., U.S.A
# Method: Purified sCD4 was coated overnight at 4° C. at the indicated concentrations in 0.1M sodium carbonate buffer (pH 9.5) in 96 well plates. Equimolar amounts of lysozyme were used as a non-specific control. The wells were washed, blocked with 10% FCS/PBS for 1 hr at R.T., and incubated with Salp15 (0.4 μM) for 2 hr at 37° C. Salp15 binding was detected by incubation with horseradish peroxidase (HRP)-conjugated anti-His antibody for 1 hr followed by microwell peroxidase substrate (KPL). The reaction was stopped by adding TMB stop solution (KPL). Chemically synthesized overlapping peptides of Salp15 were purchased from GenScript Corporation (Piscataway, N.J., U.S.A). To study the binding of Salp15 and peptides to sCD4, Salp15 (5 μg) and different peptides (0.5 μg) were coated. The wells were washed and blocked prior to incubation with sCD4-HRP (Research Diagnostics Inc., Flanders, N.J., U.S.A.). For competition assays, indicated concentrations of Salp15 or P11 were added to sCD4-HRP and incubated with plate bound P11 (0.1 μg). To estimate the effect of dithiothreitol (DTT) treatment of Salp15 on binding to sCD4, 0.5 μM Salp15 was treated with 10 mM DTT overnight and immobilized onto microtiter plate followed by blocking and incubation with sCD4-HRP.
# [5] = system: CD4+ T cells; assay: Lipid raft redistribution (CTB594 staining, receptor capping) in activated CD4+ T cells; format: cell-based, mouse; conditions: Salp15 treatment prior to anti-CD3/CD28 stimulation, murine cells
# Method: as §1, §3
# For receptor capping studies, mouse primary B and CD11^+ cells were purified by positive selection using biotin anti-mouse CD45R/B220 clone RA3-6B2 and biotin anti-mouse CD11b clone M1/70 (BD Biosciences Pharmingen) respectively, followed by incubation with magnetic microbeads. The cells were analyzed for receptor capping using 25 μg/mL anti-mouse IgM and 25 μg/mL anti-mouse CD16/CD32 respectively, cross-linked with 25 μg/mL of anti-rat IgG594 for 10 min in the presence or absence of 50 μg/mL of Salp15. […]
substance,measurement,setting,value
"Salp15: secreted salivary protein from Ixodes scapularis, SEQ ID NO: 2; recombinant His-tagged, produced in Drosophila S2 cells",Lipid raft clustering,[1],reduced
same,Phalloidin488 staining / amount of F-actin,[2],reduced
same,Phalloidin488 staining / amount of F-actin,[3],reduced
same,Competition of P11 binding to sCD4 by increasing concentrations of Salp15,[4],could also be competed
same,Lipid raft clustering,[5],reduced

# Reference: US8119589B2, “Modulation of CD4+ T cell responses by a tick saliva protein, Salp15 and polypeptides derived therefrom” (University of North Carolina at Charlotte, priority 2004, dated 2012)
